Results reported in patent US6596730B1, “Phenyl urea and phenyl thiourea derivatives” (SmithKline Beecham p.l.c., priority 1999, dated 2003).
Counter-ions that a name gives are not always drawn.

What was measured:
human orexin-1 receptor = biological target: T1, human orexin-1 receptor (Homo sapiens, UniProt O43613); assay: Determination of orexin-1 receptor antagonist activity (FLIPR calcium mobilisation, HEK293 cells, against 3.0 nM human orexin-A); type: cell-based; conditions: HEK293 cells expressing human orexin-1 receptor; Kb=IC50/(1+([3/EC50]); agonist 3.0 nM human orexin-A
T1 construct: expressed in transfected cells; host or cells: HEK293
T1 sequence (O43613 1-425): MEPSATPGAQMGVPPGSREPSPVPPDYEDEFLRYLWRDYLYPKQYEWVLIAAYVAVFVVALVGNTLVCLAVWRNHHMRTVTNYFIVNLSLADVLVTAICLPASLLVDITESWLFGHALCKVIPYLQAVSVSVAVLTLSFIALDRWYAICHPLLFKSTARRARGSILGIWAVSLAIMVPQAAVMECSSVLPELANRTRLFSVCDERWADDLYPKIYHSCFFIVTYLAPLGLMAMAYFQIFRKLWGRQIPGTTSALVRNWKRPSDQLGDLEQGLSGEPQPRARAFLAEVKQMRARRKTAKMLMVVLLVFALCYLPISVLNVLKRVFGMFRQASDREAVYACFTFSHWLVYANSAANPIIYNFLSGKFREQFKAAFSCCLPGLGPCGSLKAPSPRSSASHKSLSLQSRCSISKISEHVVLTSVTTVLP
Description: The orexin-1 receptor antagonist activity of the compounds of formula (I) was determined in accordance with the following experimental method.
HEK293 cells expressing the human orexin-1 receptor were grown in cell medium (MEM medium with Earl's salts) containing 2 mM L-Glutamine, 0.4 mg/mL G418 Sulfate from GIBCO BRL and 10% heat inactivated fetal calf serum from Gibco BRL. The cells were seeded at 20,000 cells/100 μl/well into 96-well black clear bottom sterile plates from Costar which had been pre-coated with 10 μg/well of poly-L-lysine from SIGMA. The seeded plates were incubated overnight at 37° C. in 5% CO2.
Agonists were prepared as 1 mM stocks in water:DMSO (1:1). […] Antagonist IC^50 values (the concentration of compound needed to inhibit 50% of the agonist response) were determined against 3.0 nM human orexin-A using 11×half log unit dilutions in Tyrode's buffer containing 10% DMSO and probenecid. On the day of assay 50 μl of cell medium containing probenecid (Sigma) and Fluo3AM (Texas Fluorescence Laboratories) was added (Quadra, Tomtec) to each well to give final concentrations of 2.5 mM and 4 μM, respectively. […] Cell plates were then transferred to the Fluorescent Imaging Plate Reader (FLIPR, Molecular Devices) instrument and maintained at 37° C. in humidified air. […] Agonists were added (by the FLIPR) after 20 sec (during continuous reading). […]

rat = assay: Rat sleep/EEG studies, central administration; type: in vivo; conditions: central administration at the onset of the normal sleep period
From the text: Therefore antagonists of its receptor may be useful in the treatment of sleep disorders including insomnia.

freely-feeding rats = conditions: central administration, 4 hour time period; cited from earlier work

Compound	Kb (human orexin-1 receptor) [nM]	effect on arousal / sleep (rat)	increase in food intake over control rats receiving vehicle (freely-feeding rats)
COc1ccc(NC(=O)Nc2cc(C)nc3cccnc23)cc1C(=O)NCC1CC1 [Example 2, N-Cyclopropylmethyl-2-methoxy-5-[3-(2-methyl-[1,5]-naphthyridin-4-yl)ureido]benzamide Hydrochloride]	< 31.6	–	–
orexin-A: ligand for the orexin-1 receptor, agonist of the orexin receptors; 33-residue peptide, sequence given in the 1st table (QPLPDCCRQKTCSCRLYELLHGAGNHAAGILTL; Orexin-A; UniProt O43612 34-66, looked up)	–	dose-related increase in arousal	approximately four-fold
